Laboratory results from patent publication US20260015358A1, “BICYCLIC DERIVATIVES, COMPOSITIONS AND USES THEREOF” (Danatlas Pharmaceuticals Co., Ltd., priority 2023, published 2026).

Key:
[1] = biological target: T1, WRN [UniPro: Q14191 (WRN_HUMAN), N500-C946] (Homo sapiens (Human), UniProt Q14191); test: WRN ATPase assay (ADP-Glo); assay type: biochemical; conditions: WRN enzymatic activity assay
[2] = biological target: T1, WRN [UniPro: Q14191 (WRN_HUMAN), N500-C946]; test: WRN unwinding assay (FORKF DNA, fluorescence); assay type: biochemical; conditions: Table 14

T1 sequence (Q14191 500-946): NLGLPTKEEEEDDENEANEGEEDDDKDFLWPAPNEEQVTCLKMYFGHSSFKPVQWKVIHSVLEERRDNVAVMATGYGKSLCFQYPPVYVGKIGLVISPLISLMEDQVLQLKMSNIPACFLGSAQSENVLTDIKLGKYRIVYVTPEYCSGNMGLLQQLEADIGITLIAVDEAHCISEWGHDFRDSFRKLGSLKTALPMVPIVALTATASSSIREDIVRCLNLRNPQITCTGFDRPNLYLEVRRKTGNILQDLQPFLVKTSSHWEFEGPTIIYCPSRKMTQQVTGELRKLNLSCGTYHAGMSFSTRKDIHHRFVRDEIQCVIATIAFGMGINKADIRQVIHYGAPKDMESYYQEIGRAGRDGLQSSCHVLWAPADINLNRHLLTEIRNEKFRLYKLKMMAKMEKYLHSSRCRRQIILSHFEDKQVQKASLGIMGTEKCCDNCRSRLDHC

Compound	IC50 [1]	IC50 [2]
CCc1c(N2CCN(C(=O)CNC(=O)c3ccncc3O)CC2)c(=O)n2nc(C3=CCOCC3)nc2n1CC(=O)Nc1ccc(C(F)(F)F)cc1Cl [Example 381, N-(2-(4-(4-(2-((2-Chloro-4-(trifluoromethyl)phenyl)amino)-2-oxoethyl)-2-(3,6-dihydro-2H-pyran-4-yl)-5-ethyl-7-oxo-4,7-dihydro-[1,2,4]triazolo[1,5-a]pyrimidin-6-yl)piperazin-1-yl)-2-oxoethyl)-3-hydroxyisonicotinamide]	< 100 nM	< 100 nM
CCc1c(N2CCN(C(=O)CNC(=O)c3cc(C#N)ccc3F)CC2)c(=O)n2nc(C3=CCOCC3)nc2n1CC(=O)Nc1ccc(C(F)(F)F)cc1Cl [Example 382, N-(2-(4-(4-(2-((2-Chloro-4-(trifluoromethyl)phenyl)amino)-2-oxoethyl)-2-(3,6-dihydro-2H-pyran-4-yl)-5-ethyl-7-oxo-4,7-dihydro-[1,2,4]triazolo[1,5-a]pyrimidin-6-yl)piperazin-1-yl)-2-oxoethyl)-5-cyano-2-fluorobenzamide]	< 100 nM	< 100 nM
CCc1c(N2CCN(C(=O)CNC(=O)c3cccc4nonc34)CC2)c(=O)n2nc(C3=CCOCC3)nc2n1CC(=O)Nc1ccc(C(F)(F)F)cc1Cl [Example 383, N-(2-(4-(4-(2-((2-Chloro-4-(trifluoromethyl)phenyl)amino)-2-oxoethyl)-2-(3,6-dihydro-2H-pyran-4-yl)-5-ethyl-7-oxo-4,7-dihydro-[1,2,4]triazolo[1,5-a]pyrimidin-6-yl)piperazin-1-yl)-2-oxoethyl)benzo[c][1,2,5]oxadiazole-4-carboxamide]	< 100 nM	< 100 nM
CCc1c(N2CCN(C(=O)CNC(=O)c3cnon3)CC2)c(=O)n2nc(C3=CCOCC3)nc2n1CC(=O)Nc1ccc(C(F)(F)F)cc1Cl [Example 384, N-(2-(4-(4-(2-((2-Chloro-4-(trifluoromethyl)phenyl)amino)-2-oxoethyl)-2-(3,6-dihydro-2H-pyran-4-yl)-5-ethyl-7-oxo-4,7-dihydro-[1,2,4]triazolo[1,5-a]pyrimidin-6-yl)piperazin-1-yl)-2-oxoethyl)-1,2,5-oxadiazole-3-carboxamide]	< 100 nM	< 100 nM
CCc1c(N2CCN(C(=O)CNC(=O)c3ccco3)CC2)c(=O)n2nc(C3=CCOCC3)nc2n1CC(=O)Nc1ccc(C(F)(F)F)cc1Cl [Example 385, N-(2-(4-(4-(2-((2-Chloro-4-(trifluoromethyl)phenyl)amino)-2-oxoethyl)-2-(3,6-dihydro-2H-pyran-4-yl)-5-ethyl-7-oxo-4,7-dihydro-[1,2,4]triazolo[1,5-a]pyrimidin-6-yl)piperazin-1-yl)-2-oxoethyl)furan-2-carboxamide]	< 100 nM	< 100 nM
CCc1c(N2CCN(C(=O)CNC(=O)c3cccs3)CC2)c(=O)n2nc(C3=CCOCC3)nc2n1CC(=O)Nc1ccc(C(F)(F)F)cc1Cl [Example 386, N-(2-(4-(4-(2-((2-Chloro-4-(trifluoromethyl)phenyl)amino)-2-oxoethyl)-2-(3,6-dihydro-2H-pyran-4-yl)-5-ethyl-7-oxo-4,7-dihydro-[1,2,4]triazolo[1,5-a]pyrimidin-6-yl)piperazin-1-yl)-2-oxoethyl)thiophene-2-carboxamide]	< 100 nM	< 100 nM
